Tested on: 354836-022-R-J1-PDC multicell spheroid viability
Test: Anticancer human tumor 354836-022-R-J1-PDC patient-derived head and neck squamous cell carcinoma cell line growth inhibition [PI3K]
Settings: for IC50: curve of first compound; for viability, T/C: stronger effect = lower value; active = viability on the fitted dose curve at most 10% of control; inactive = the rest
Procedure, shortened: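 Targeted small molecules plus PI3K inhibitors, half-log dose series from Cmax (default top 10 microM), were applied to heterotypic spheroids of cancer cells with HUVEC and MSCs. Viability indicated growth inhibition.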

[1] = second compound 0.00316 µM, first compound 0.0316 µM
[2] = second compound 0.00316 µM, first compound 0.1 µM
[3] = second compound 0.00316 µM, first compound 0.316 µM
[4] = second compound 0.00316 µM, first compound 1 µM
[5] = second compound 0.00316 µM, first compound 3.16 µM
[6] = second compound 0.00316 µM, first compound 10 µM
[7] = second compound 0.01 µM, first compound 0.0316 µM
[8] = second compound 0.01 µM, first compound 0.1 µM
[9] = second compound 0.01 µM, first compound 0.316 µM
[10] = second compound 0.01 µM, first compound 1 µM
[11] = second compound 0.01 µM, first compound 3.16 µM
[12] = second compound 0.01 µM, first compound 10 µM
[13] = second compound 0.0316 µM, first compound 0.0316 µM
[14] = second compound 0.0316 µM, first compound 0.1 µM
[15] = second compound 0.0316 µM, first compound 0.316 µM
[16] = second compound 0.0316 µM, first compound 1 µM
[17] = second compound 0.0316 µM, first compound 3.16 µM
[18] = second compound 0.0316 µM, first compound 10 µM
[19] = second compound 0.1 µM, first compound 0.0316 µM
[20] = second compound 0.1 µM, first compound 0.1 µM
[21] = second compound 0.1 µM, first compound 0.316 µM
[22] = second compound 0.1 µM, first compound 1 µM
[23] = second compound 0.1 µM, first compound 3.16 µM
[24] = second compound 0.1 µM, first compound 10 µM
[25] = second compound 0.316 µM, first compound 0.0316 µM
[26] = second compound 0.316 µM, first compound 0.1 µM
[27] = second compound 0.316 µM, first compound 0.316 µM
[28] = second compound 0.316 µM, first compound 1 µM
[29] = second compound 0.316 µM, first compound 3.16 µM
[30] = second compound 0.316 µM, first compound 10 µM
[31] = second compound 1 µM, first compound 0.0316 µM
[32] = second compound 1 µM, first compound 0.1 µM
[33] = second compound 1 µM, first compound 0.316 µM
[34] = second compound 1 µM, first compound 1 µM
[35] = second compound 1 µM, first compound 3.16 µM
[36] = second compound 1 µM, first compound 10 µM
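Note: spheroids exposed to agents for seven days before the viability read.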

C#Cc1c(F)ccc2cc(O)cc(-c3ncc4c(N5CC6CCC(C5)N6)nc(OCC56CCCN5CC(F)C6)nc4c3F)c12 (stereo not drawn) + COc1c(OCCCN2CCOCC2)ccc2c3n(c(=NC(=O)c4cnc(N)nc4)nc12)CCN3
< 0.0316 µM: IC50 (second compound 0.316 µM) | IC50 (second compound 1 µM)
active: viability, T/C [29] 11.4% | viability, T/C [30] 3.3% | viability, T/C [31] 2.48% | viability, T/C [32] 2.22% | viability, T/C [33] 1.66% | viability, T/C [34] 1.78% | viability, T/C [35] 1.73% | viability, T/C [36] 0.66%
inactive: viability, T/C [1] 113% | viability, T/C [2] 102% | viability, T/C [3] 107% | viability, T/C [4] 108% | viability, T/C [5] 111% | viability, T/C [6] 92.8% | viability, T/C [7] 98% | viability, T/C [8] 99% | viability, T/C [9] 96.3% | viability, T/C [10] 116% | viability, T/C [11] 92% | viability, T/C [12] 101% | viability, T/C [13] 79.4% | viability, T/C [14] 84.2% | viability, T/C [15] 96.4% | viability, T/C [16] 89.7% | viability, T/C [17] 74.1% | viability, T/C [18] 77.1% | viability, T/C [19] 56.1% | viability, T/C [20] 67.8% | viability, T/C [21] 52.9% | viability, T/C [22] 47.1% | viability, T/C [23] 45.6% | viability, T/C [24] 45.4% | viability, T/C [25] 14.6% | viability, T/C [26] 14% | viability, T/C [27] 12.9% | viability, T/C [28] 14.6%
0.516 µM: IC50 (second compound 0.1 µM)
> 10 µM: IC50 (second compound 0.00316 µM) | IC50 (second compound 0.01 µM) | IC50 (second compound 0.0316 µM)

C=CC(=O)N1CCN(c2nc(=O)n(-c3c(C)ccnc3C(C)C)c3nc(-c4c(O)cccc4F)c(F)cc23)C(C)C1 (stereo not drawn) + COc1c(OCCCN2CCOCC2)ccc2c3n(c(=NC(=O)c4cnc(N)nc4)nc12)CCN3
> 10 µM: IC50 (second compound 0.00316 µM) | IC50 (second compound 0.01 µM) | IC50 (second compound 0.0316 µM) | IC50 (second compound 0.1 µM)
inactive: viability, T/C [1] 96.3% | viability, T/C [2] 106% | viability, T/C [3] 109% | viability, T/C [4] 108% | viability, T/C [5] 118% | viability, T/C [6] 116% | viability, T/C [7] 97.7% | viability, T/C [8] 99% | viability, T/C [9] 98.5% | viability, T/C [10] 102% | viability, T/C [11] 105% | viability, T/C [12] 90.4% | viability, T/C [13] 83.2% | viability, T/C [14] 83.5% | viability, T/C [15] 72% | viability, T/C [16] 82.6% | viability, T/C [17] 110% | viability, T/C [18] 95.4% | viability, T/C [19] 61.4% | viability, T/C [20] 45.3% | viability, T/C [21] 59.2% | viability, T/C [22] 62.8% | viability, T/C [23] 61.5% | viability, T/C [24] 55.6% | viability, T/C [25] 14.3% | viability, T/C [26] 16.2% | viability, T/C [27] 16.2% | viability, T/C [28] 18.4% | viability, T/C [29] 25.9% | viability, T/C [30] 13%
active: viability, T/C [31] 1.79% | viability, T/C [32] 1.75% | viability, T/C [33] 1.72% | viability, T/C [34] 2.49% | viability, T/C [35] 1.82% | viability, T/C [36] 1.3%
< 0.0316 µM: IC50 (second compound 0.316 µM) | IC50 (second compound 1 µM)

CC(Cn1ccc(-c2ccc(C#N)c(Cl)c2)n1)NC(=O)c1cc(C(C)O)[nH]n1 (stereo not drawn) + COc1c(OCCCN2CCOCC2)ccc2c3n(c(=NC(=O)c4cnc(N)nc4)nc12)CCN3
active: viability, T/C [31] 2.74% | viability, T/C [32] 1.7% | viability, T/C [33] 1.89% | viability, T/C [34] 2.26% | viability, T/C [35] 2.15% | viability, T/C [36] 2.19%
> 10 µM: IC50 (second compound 0.00316 µM) | IC50 (second compound 0.01 µM) | IC50 (second compound 0.0316 µM)
inactive: viability, T/C [1] 119% | viability, T/C [2] 99.5% | viability, T/C [3] 106% | viability, T/C [4] 104% | viability, T/C [5] 102% | viability, T/C [6] 86.3% | viability, T/C [7] 98.8% | viability, T/C [8] 104% | viability, T/C [9] 92.5% | viability, T/C [10] 113% | viability, T/C [11] 105% | viability, T/C [12] 80% | viability, T/C [13] 69.6% | viability, T/C [14] 82.7% | viability, T/C [15] 85.2% | viability, T/C [16] 86.9% | viability, T/C [17] 88.5% | viability, T/C [18] 67.5% | viability, T/C [19] 48.4% | viability, T/C [20] 52.5% | viability, T/C [21] 52% | viability, T/C [22] 57.1% | viability, T/C [23] 58.1% | viability, T/C [24] 51.9% | viability, T/C [25] 11.8% | viability, T/C [26] 18.3% | viability, T/C [27] 15.1% | viability, T/C [28] 20.9% | viability, T/C [29] 15.2% | viability, T/C [30] 18.2%
< 0.0316 µM: IC50 (second compound 0.1 µM) | IC50 (second compound 0.316 µM) | IC50 (second compound 1 µM)

CC1(C)CCC(Nc2ncc(C(F)(F)F)c(-c3c[nH]c4c(P(C)(C)=O)c(C#N)ccc34)n2)CN1 (stereo not drawn) + COc1c(OCCCN2CCOCC2)ccc2c3n(c(=NC(=O)c4cnc(N)nc4)nc12)CCN3
active: viability, T/C [5] 15.3% | viability, T/C [6] 3.31% | viability, T/C [11] 15.3% | viability, T/C [12] 1.45% | viability, T/C [17] 13.4% | viability, T/C [18] 1.98% | viability, T/C [20] 8.41% | viability, T/C [21] 9.5% | viability, T/C [22] 9.61% | viability, T/C [23] 8.75% | viability, T/C [24] 0.91% | viability, T/C [25] 3.76% | viability, T/C [26] 3.49% | viability, T/C [27] 5.12% | viability, T/C [28] 4.26% | viability, T/C [29] 4.19% | viability, T/C [30] 0.4% | viability, T/C [31] 1.25% | viability, T/C [32] 1.35% | viability, T/C [33] 1.58% | viability, T/C [34] 1.61% | viability, T/C [35] 1.3% | viability, T/C [36] 0.43%
inactive: viability, T/C [1] 12.1% | viability, T/C [2] 11.7% | viability, T/C [3] 11.3% | viability, T/C [4] 12.8% | viability, T/C [7] 13.1% | viability, T/C [8] 12.1% | viability, T/C [9] 13% | viability, T/C [10] 12.4% | viability, T/C [13] 9.55% | viability, T/C [14] 11.7% | viability, T/C [15] 11.4% | viability, T/C [16] 14.8% | viability, T/C [19] 9.95%
< 0.0316 µM: IC50 (second compound 0.00316 µM) | IC50 (second compound 0.01 µM) | IC50 (second compound 0.0316 µM) | IC50 (second compound 0.1 µM) | IC50 (second compound 0.316 µM) | IC50 (second compound 1 µM)

From PubChem BioAssay AID1963981 (Molecular Pharmacology Branch, DTP, NCI, 2024)
